Patent US9167821B2 (priority 2009, dated 2015)

Assay: physchem
Text: The determination is effected in the acidic range at pH 2.3 using 0.1% aqueous phosphoric acid and acetonitrile as eluents; linear gradient from 10% acetonitrile to 95% acetonitrile. • ^[b] The LC-MS determination in the acidic range is effected at pH 2.7 using 0.1% aqueous formic acid and acetonitrile (contains 0.1% formic acid) as eluents; linear gradient from 10% acetonitrile to 95% acetonitrile. • ^[c] The LC-MS determination in the neutral range is effected at pH 7.8 using 0.001 molar aqueous ammonium hydrogencarbonate solution and acetonitrile as eluents; linear gradient from 10% acetonitrile to 95% acetonitrile.
The calibration is effected with unbranched alkan-2-ones (having 3 to 16 carbon atoms) with known log P values (determination of the log P values using the retention times by linear interpolation between two successive alkanones).

Question: With `O=C(O)c1ccccc1C1CC(c2csc(C3CCN(C(=O)Cn4nc(C(F)F)cc4C(F)F)CC3)n2)=NO1` (stereo not shown) [2-{3-[2-(1-{[3,5-Bis(difluoromethyl)-1H-pyrazol-1-yl]acetyl}piperidin-4-yl)-1,3-thiazol-4-yl]-4,5-dihydro-1,2-oxazol-5-yl}benzoic acid] as the molecule, how does the chromatographic logP (pH 2.7, log P (HCOOH)) read?
Answer: Its chromatographic logP is 2.63.

Question: Which chromatographic logP (pH 2.7, logp [b]) does the source give for `COCCOCc1ccccc1C1CC(c2csc(C3CCN(C(=O)Cn4nc(C(F)F)cc4C(F)F)CC3)n2)=NO1` (stereo not shown) [I-11, 2-[3,5-Bis(difluoromethyl)-1H-pyrazol-1-yl]-1-{4-[4-(5-{2-[(2-methoxyethoxy)methyl]phenyl}-4,5-dihydro-1,2-oxazol-3-yl)-1,3-thiazol-2-yl]piperidin-1-yl}ethanone] here?
Answer: The chromatographic logP was 3.21.

Question: Which chromatographic logP (pH 2.7, logp [b]) does the source give for `CCSCc1ccccc1C1CC(c2csc(C3CCN(C(=O)Cn4nc(C(F)F)cc4C(F)F)CC3)n2)=NO1` (stereo not shown) [I-12, 2-[3,5-Bis(difluoromethyl)-1H-pyrazol-1-yl]-1-{4-[4-(5-{2-[(ethylsulphanyl)methyl]phenyl}-4,5-dihydro-1,2-oxazol-3-yl)-1,3-thiazol-2-yl]piperidin-1-yl}ethanone] here?
Answer: The chromatographic logP was 3.9.

Question: With `O=C(OCC1CC1)c1ccccc1C1CC(c2csc(C3CCN(C(=O)Cn4nc(C(F)F)cc4C(F)F)CC3)n2)=NO1` (stereo not shown) [I-13, Cyclopropylmethyl 2-{3-[2-(1-{[3,5-bis(difluoromethyl)-1H-pyrazol-1-yl]acetyl}piperidin-4-yl)-1,3-thiazol-4-yl]-4,5-dihydro-1,2-oxazol-5-yl}benzoate] as the molecule, how does the chromatographic logP (pH 2.7, logp [b]) read?
Answer: Its chromatographic logP is 3.99.

Question: What about the chromatographic logP (pH 7.8, logp [c]) of the same molecule?
Answer: Its chromatographic logP is 3.92.

Question: For `O=Cc1cccc(F)c1C1CC(c2csc(C3CCN(C(=O)Cn4nc(C(F)F)cc4C(F)F)CC3)n2)=NO1` (stereo not shown) [I-17, 2-{3-[2-(1-{[3,5-Bis(difluoromethyl)-1H-pyrazol-1-yl]acetyl}piperidin-4-yl)-1,3-thiazol-4-yl]-4,5-dihydro-1,2-oxazol-5-yl}-3-fluorobenzaldehyde], which chromatographic logP (pH 2.7, logp [b]) is on record?
Answer: Its chromatographic logP is 2.92.

Question: And the chromatographic logP (pH 7.8, logp [c])?
Answer: The chromatographic logP was 2.82.

Question: For `C=C(C)COc1ccccc1C1CC(c2csc(C3CCN(C(=O)Cn4nc(C(F)F)cc4C(F)F)CC3)n2)=NO1` (stereo not shown) [I-18, 2-[3,5-bis(difluoromethyl)-1H-pyrazol-1-yl]-1-{4-[4-(5-{2-[(2-methylprop-2-en-1-yl)oxy]phenyl}-4,5-dihydro-1,2-oxazol-3-yl)-1,3-thiazol-2-yl]piperidin-1-yl}ethanone], which chromatographic logP (pH 2.7, logp [b]) is on record?
Answer: The chromatographic logP was 3.96.

Question: And the chromatographic logP (pH 7.8, logp [c])?
Answer: Its chromatographic logP is 3.92.

Question: Which results are given for `O=C(Cn1nc(C(F)F)cc1C(F)F)N1CCC(c2nc(C3=NOC(c4ccccc4OCC4CCCCC4)C3)cs2)CC1` (stereo not shown) [I-24, 2-[3,5-Bis(difluoromethyl)-1H-pyrazol-1-yl]-1-[4-(4-{5-[2-(cyclohexylmethoxy)phenyl]-4,5-dihydro-1,2-oxazol-3-yl}-1,3-thiazol-2-yl)piperidin-1-yl]ethanone]?
Answer: chromatographic logP (pH 2.3): 4.9; chromatographic logP (pH 7.8): 4.9

Question: With `O=C(NC1CC1)c1ccccc1C1CC(c2csc(C3CCN(C(=O)Cn4nc(C(F)F)cc4C(F)F)CC3)n2)=NO1` (stereo not shown) [I-27, 2-{3-[2-(1-{[3,5-Bis(difluoromethyl)-1H-pyrazol-1-yl]acetyl}piperidin-4-yl)-1,3-thiazol-4-yl]-4,5-dihydro-1,2-oxazol-5-yl}-N-cyclopropylbenzamide] as the molecule, how does the chromatographic logP (pH 2.7, logp [b]) read?
Answer: Its chromatographic logP is 2.64.

Question: For `COCCOc1cccc(C2CC(c3csc(C4CCN(C(=O)Cn5nc(C(F)F)cc5C(F)F)CC4)n3)=NO2)c1` (stereo not shown) [I-28, 2-[3,5-Bis(difluoromethyl)-1H-pyrazol-1-yl]-1-[4-(4-{5-[3-(2-methoxyethoxy)phenyl]-4,5-dihydro-1,2-oxazol-3-yl}-1,3-thiazol-2-yl)piperidin-1-yl]ethanone], which chromatographic logP (pH 2.7, logp [b]) is on record?
Answer: The chromatographic logP was 3.03.

Question: What about the chromatographic logP (pH 7.8, logp [c]) of the same molecule?
Answer: Its chromatographic logP is 3.04.

Question: With `O=Cc1ccccc1-c1cc(-c2csc(C3CCN(C(=O)Cn4nc(C(F)F)cc4C(F)F)CC3)n2)no1` [I-31, 2-{3-[2-(1-{[3,5-Bis(difluoromethyl)-1H-pyrazol-1-yl]acetyl}piperidin-4-yl)-1,3-thiazol-4-yl]-1,2-oxazol-5-yl}benzaldehyde] as the molecule, how does the chromatographic logP (pH 2.7, logp [b]) read?
Answer: Its chromatographic logP is 3.25.

Question: With `O=C(Oc1ccccc1C1CC(c2csc(C3CCN(C(=O)Cn4nc(C(F)F)cc4C(F)F)CC3)n2)=NO1)C1CCCCC1` (stereo not shown) [I-32, 2-{3-[2-(1-{[3,5-bis(difluoromethyl)-1H-pyrazol-1-yl]acetyl}piperidin-4-yl)-1,3-thiazol-4-yl]-4,5-dihydro-1,2-oxazol-5-yl}phenyl cyclohexanecarboxylate] as the molecule, how does the chromatographic logP (pH 2.3) read?
Answer: The chromatographic logP was 4.27.

Question: And the chromatographic logP (pH 7.8, logp [c])?
Answer: Its chromatographic logP is 4.19.

Question: Which chromatographic logP (pH 2.7, logp [b]) does the source give for `CS(=O)(=O)Nc1ccccc1C1CC(c2csc(C3CCN(C(=O)Cn4nc(C(F)F)cc4C(F)F)CC3)n2)=NO1` (stereo not shown) [I-37, N-(2-{3-[2-(1-{[3,5-Bis(difluoromethyl)-1H-pyrazol-1-yl]acetyl}piperidin-4-yl)-1,3-thiazol-4-yl]-4,5-dihydro-1,2-oxazol-5-yl}phenyl)methanesulphonamide] here?
Answer: The chromatographic logP was 2.51.

Question: Which chromatographic logP (pH 2.7, logp [b]) does the source give for `C#Cc1ccccc1C1CC(c2csc(C3CCN(C(=O)Cn4nc(C(F)F)cc4C(F)F)CC3)n2)=NO1` (stereo not shown) [I-38, 2-[3,5-Bis(difluoromethyl)-1H-pyrazol-1-yl]-1-(4-{4-[5-(2-ethynylphenyl)-4,5-dihydro-1,2-oxazol-3-yl]-1,3-thiazol-2-yl}piperidin-1-yl)ethanone] here?
Answer: Its chromatographic logP is 3.36.

Question: With `COC(=O)c1ccccc1C1CC(c2csc(C3CCN(C(=O)Cn4nc(C(F)F)cc4C(F)F)CC3)n2)=NO1` (stereo not shown) [I-43, Methyl 2-{3-[2-(1-{[3,5-bis(difluoromethyl)-1H-pyrazol-1-yl]acetyl}piperidin-4-yl)-1,3-thiazol-4-yl]-4,5-dihydro-1,2-oxazol-5-yl}benzoate] as the molecule, how does the chromatographic logP (pH 2.7, logp [b]) read?
Answer: Its chromatographic logP is 3.32.

Question: For `O=C(Cn1nc(C(F)F)cc1C(F)F)N1CCC(c2nc(C3=NOC(c4ccccc4CCl)C3)cs2)CC1` (stereo not shown) [I-44, 2-[3,5-Bis(difluoromethyl)-1H-pyrazol-1-yl]-1-[4-(4-{5-[2-(chloromethyl)phenyl]-4,5-dihydro-1,2-oxazol-3-yl}-1,3-thiazol-2-yl)piperidin-1-yl]ethanone], which chromatographic logP (pH 2.7, logp [b]) is on record?
Answer: Its chromatographic logP is 3.36.

Question: With `O=C(Cn1nc(C(F)F)cc1C(F)F)N1CCC(c2nc(C3=NOC(c4ccccc4CO)C3)cs2)CC1` (stereo not shown) [I-45, 2-[3,5-Bis(difluoromethyl)-1H-pyrazol-1-yl]-1-[4-(4-{5-[2-(hydroxymethyl)phenyl]-4,5-dihydro-1,2-oxazol-3-yl}-1,3-thiazol-2-yl)piperidin-1-yl]ethanone] as the molecule, how does the chromatographic logP (pH 2.7, logp [b]) read?
Answer: The chromatographic logP was 2.45.

Question: Which chromatographic logP (pH 2.7, logp [b]) does the source give for `COC(=O)c1ccccc1C1CC(c2nc(C3CCN(C(=O)Cn4nc(C(F)F)cc4C(F)F)CC3)sc2Cl)=NO1` (stereo not shown) [I-46, methyl 2-{3-[2-(1-{[3,5-bis(difluoromethyl)-1H-pyrazol-1-yl]acetyl}piperidin-4-yl)-5-chloro-1,3-thiazol-4-yl]-4,5-dihydro-1,2-oxazol-5-yl}benzoate] here?
Answer: The chromatographic logP was 3.98.

Question: With `C#CCOc1cccc(Cl)c1C1CC(c2csc(C3CCN(C(=O)Cn4nc(C(F)F)cc4C(F)F)CC3)n2)=NO1` (stereo not shown) [I-49, 2-[3,5-bis(difluoromethyl)-1H-pyrazol-1-yl]-1-[4-(4-{5-[2-chloro-6-(prop-2-yn-1-yloxy)phenyl]-4,5-dihydro-1,2-oxazol-3-yl}-1,3-thiazol-2-yl)piperidin-1-yl]ethanone] as the molecule, how does the chromatographic logP (pH 2.7, logp [b]) read?
Answer: Its chromatographic logP is 3.5.

Question: And the chromatographic logP (pH 7.8, logp [c])?
Answer: The chromatographic logP was 3.34.

Question: For `COCCOc1cccc(Cl)c1C1CC(c2csc(C3CCN(C(=O)Cn4nc(C(F)F)cc4C(F)F)CC3)n2)=NO1` (stereo not shown) [I-50, 2-[3,5-bis(difluoromethyl)-1H-pyrazol-1-yl]-1-[4-(4-{5-[2-chloro-6-(2-methoxyethoxy)phenyl]-4,5-dihydro-1,2-oxazol-3-yl}-1,3-thiazol-2-yl)piperidin-1-yl]ethanone], which chromatographic logP (pH 2.7, logp [b]) is on record?
Answer: Its chromatographic logP is 3.36.

Question: With `C=CCOc1cccc(Cl)c1C1CC(c2csc(C3CCN(C(=O)Cn4nc(C(F)F)cc4C(F)F)CC3)n2)=NO1` (stereo not shown) [I-51, 1-[4-(4-{5-[2-(Allyloxy)-6-chlorophenyl]-4,5-dihydro-1,2-oxazol-3-yl}-1,3-thiazol-2-yl)piperidin-1-yl]-2-[3,5-bis(difluoromethyl)-1H-pyrazol-1-yl]ethanone] as the molecule, how does the chromatographic logP (pH 2.7, logp [b]) read?
Answer: Its chromatographic logP is 3.82.

Question: And the chromatographic logP (pH 7.8, logp [c])?
Answer: The chromatographic logP was 3.71.

Question: What does the source list for `O=C(Cn1nc(C(F)F)cc1C(F)F)N1CCC(c2nc(C3=NOC(c4c(O)cccc4Cl)C3)cs2)CC1` (stereo not shown) [I-54, 2-[3,5-Bis(difluoromethyl)-1H-pyrazol-1-yl]-1-(4-{4-[5-(2-chloro-6-hydroxyphenyl)-4,5-dihydro-1,2-oxazol-3-yl]-1,3-thiazol-2-yl}piperidin-1-yl)ethanone]?
Answer: chromatographic logP (pH 2.7, log P (HCOOH)): 2.94; chromatographic logP (pH 2.7, logp [b]): 2.94

Question: For `CC(C)(C)OC(=O)N1CCC(F)(c2nc(C=O)cs2)CC1` [VI-1, tert-Butyl 4-fluoro-4-(4-formyl-1,3-thiazol-2-yl)piperidine-1-carboxylate], which chromatographic logP (pH 2.7, log P (HCOOH)) is on record?
Answer: Its chromatographic logP is 2.8.

Question: Which chromatographic logP (pH 2.7, log P (HCOOH)) does the source give for `O=Cc1csc(C2CCN(C(=O)Cn3nc(C(F)F)cc3C(F)F)CC2)n1` [VI-2, 2-(1-{[3,5-Bis(difluoromethyl)-1H-pyrazol-1-yl]acetyl}piperidin-4-yl)-1,3-thiazole-4-carbaldehyde] here?
Answer: The chromatographic logP was 1.93.

Question: Which chromatographic logP (pH 2.7, log P (HCOOH)) does the source give for `CC(C)(C)OC(=O)N1CCC(F)(c2nc(C3=NOC(c4ccccc4)C3)cs2)CC1` (stereo not shown) [X-a-1, tert-Butyl 4-fluoro-4-[4-(5-phenyl-4,5-dihydro-1,2-oxazol-3-yl)-1,3-thiazol-2-yl]piperidine-1-carboxylate] here?
Answer: The chromatographic logP was 4.28.

Question: For `CC(C)(C)OC(=O)N1CCC(c2nc(C3=NOC(c4ccccc4C=O)C3)cs2)CC1` (stereo not shown) [X-a-3, tert-Butyl 4-{4-[5-(2-formylphenyl)-4,5-dihydro-1,2-oxazol-3-yl]-1,3-thiazol-2-yl}piperidine-1-carboxylate], which chromatographic logP (pH 2.7, log P (HCOOH)) is on record?
Answer: Its chromatographic logP is 3.76.

Question: Which chromatographic logP (pH 2.7, log P (HCOOH)) does the source give for `CC(C)(C)OC(=O)N1CCC(c2nc(C3=NOC(c4ccccc4NS(C)(=O)=O)C3)cs2)CC1` (stereo not shown) [X-a-4, tert-Butyl 4-[4-(5-{2-[(methylsulphonyl)amino]phenyl}-4,5-dihydro-1,2-oxazol-3-yl)-1,3-thiazol-2-yl]piperidine-1-carboxylate] here?
Answer: Its chromatographic logP is 3.

Question: For `CC(C)(C)OC(=O)N1CCC(c2nc(C3=NOC(c4ccccc4O)C3)cs2)CC1` (stereo not shown) [X-a-5, tert-Butyl 4-{4-[5-(2-hydroxyphenyl)-4,5-dihydro-1,2-oxazol-3-yl]-1,3-thiazol-2-yl}piperidine-1-carboxylate], which chromatographic logP (pH 2.7, log P (pH2.7)) is on record?
Answer: The chromatographic logP was 3.22.

Question: For `CC(C)(C)OC(=O)N1CCC(c2nc(C3=NOC(c4ccccc4[N+](=O)[O-])C3)cs2)CC1` (stereo not shown) [X-a-6, tert-Butyl 4-{4-[5-(2-nitrophenyl)-4,5-dihydro-1,2-oxazol-3-yl]-1,3-thiazol-2-yl}piperidine-1-carboxylate], which chromatographic logP (pH 2.7, log P (pH2.7)) is on record?
Answer: Its chromatographic logP is 4.01.
